# Assay results: ChEMBL document CHEMBL3885881, “DrugMatrix”
# Organism: Rattus norvegicus
# Assay: DrugMatrix - Regimen: Daily Repeat
# Assay type: toxicity, organism-based, Sprague-Dawley
# Set-up: regimen Daily Repeat, gender Male, age 6-8 weeks
# Settings: in vivo, po, route oral GAVAGE, […]; for POTASSIUM / SODIUM / TOTAL BILIRUBIN / TOTAL PROTEIN / URIC ACID / ALANINE AMINOTRANSFERASE / ALBUMIN / ALKALINE PHOSPHATASE / ASPARTATE AMINOTRANSFERASE / BLOOD UREA NITROGEN / CARBON DIOXIDE / CHLORIDE / CHOLESTEROL / CREATINE PHOSPHOKINASE / CREATININE / GLUCOSE / LACTATE DEHYDROGENASE / LIPASE / PHOSPHORUS: tissue Plasma; for ABSOLUTE BASOPHIL / ABSOLUTE EOSINOPHIL / ABSOLUTE LYMPHOCYTE / ABSOLUTE MONOCYTE / ABSOLUTE SEGMENTED NEUTROPHIL / BASOPHIL / EOSINOPHIL / ERYTHROCYTE COUNT / HEMATOCRIT / HEMOGLOBIN / LEUKOCYTE COUNT / LYMPHOCYTE / MEAN CORPUSCULAR HEMOGLOBIN / MEAN CORPUSCULAR HEMOGLOBIN CONCENTRATION / MEAN CORPUSCULAR VOLUME / MONOCYTE / NEUTROPHIL / NUCLEATED RED BLOOD CELLS / PLATELET COUNT: tissue Blood
# [1] = 9 mg/kg, 72 h, dose level M1, time 3 day
# [2] = 9 mg/kg, 120 h, dose level M1, time 5 day
# [3] = 36 mg/kg, 72 h, dose level High, time 3 day
# [4] = 36 mg/kg, 120 h, dose level High, time 5 day
compound,measurement,setting,value
CS(=O)(=O)OCCCCOS(C)(=O)=O [BUSULFAN],POTASSIUM,[1],6.13 MEQ/L
same,SODIUM,[1],143.63 MEQ/L
same,TOTAL BILIRUBIN,[1],0.13 mg/dL
same,TOTAL PROTEIN,[1],5.73 G/DL
same,URIC ACID,[1],1.27 mg/dL
same,ABSOLUTE BASOPHIL,[2],0 CELLS/uL
same,ABSOLUTE EOSINOPHIL,[2],0 CELLS/uL
same,ABSOLUTE LYMPHOCYTE,[2],6323.33 CELLS/uL
same,ABSOLUTE MONOCYTE,[2],60 CELLS/uL
same,ABSOLUTE SEGMENTED NEUTROPHIL,[2],150 CELLS/uL
same,BASOPHIL,[2],0%
same,EOSINOPHIL,[2],0%
same,ERYTHROCYTE COUNT,[2],6.03 x10E6/uL
same,HEMATOCRIT,[2],36.67%
same,HEMOGLOBIN,[2],14.47 G/DL
same,LEUKOCYTE COUNT,[2],6.53 x10E3/uL
same,LYMPHOCYTE,[2],97%
same,MEAN CORPUSCULAR HEMOGLOBIN,[2],24.03 pg
same,MEAN CORPUSCULAR HEMOGLOBIN CONCENTRATION,[2],39.43 G/DL
same,MEAN CORPUSCULAR VOLUME,[2],60.83 fL
same,MONOCYTE,[2],0.67%
same,NEUTROPHIL,[2],2.33%
same,NUCLEATED RED BLOOD CELLS,[2],0 /100WBC
same,PLATELET COUNT,[2],1101.33 x10E3/uL
same,ALANINE AMINOTRANSFERASE,[2],48.67 u/L
same,ALBUMIN,[2],4.4 G/DL
same,ALKALINE PHOSPHATASE,[2],322 u/L
same,ASPARTATE AMINOTRANSFERASE,[2],84.67 u/L
same,BLOOD UREA NITROGEN,[2],8.33 mg/dL
same,CARBON DIOXIDE,[2],33 mmol/L
same,CHLORIDE,[2],99.33 MEQ/L
same,CHOLESTEROL,[2],81.67 mg/dL
same,CREATINE PHOSPHOKINASE,[2],189.67 u/L
same,CREATININE,[2],0.3 mg/dL
same,GLUCOSE,[2],133.33 mg/dL
same,LACTATE DEHYDROGENASE,[2],120 u/L
same,LIPASE,[2],11.33 u/L
same,PHOSPHORUS,[2],9.3 mg/dL
same,POTASSIUM,[2],6.08 MEQ/L
same,SODIUM,[2],145.27 MEQ/L
same,TOTAL BILIRUBIN,[2],0.13 mg/dL
same,TOTAL PROTEIN,[2],6.33 G/DL
same,URIC ACID,[2],0.77 mg/dL
same,ABSOLUTE BASOPHIL,[3],0 CELLS/uL
same,ABSOLUTE EOSINOPHIL,[3],0 CELLS/uL
same,ABSOLUTE LYMPHOCYTE,[3],7116 CELLS/uL
same,ABSOLUTE MONOCYTE,[3],0 CELLS/uL
same,ABSOLUTE SEGMENTED NEUTROPHIL,[3],417.33 CELLS/uL
same,BASOPHIL,[3],0%
same,EOSINOPHIL,[3],0%
same,ERYTHROCYTE COUNT,[3],5.94 x10E6/uL
same,HEMATOCRIT,[3],37.13%
same,HEMOGLOBIN,[3],14.47 G/DL
same,LEUKOCYTE COUNT,[3],7.53 x10E3/uL
same,LYMPHOCYTE,[3],94.33%
same,MEAN CORPUSCULAR HEMOGLOBIN,[3],24.5 pg
same,MEAN CORPUSCULAR HEMOGLOBIN CONCENTRATION,[3],39.07 G/DL
same,MEAN CORPUSCULAR VOLUME,[3],62.67 fL
same,MONOCYTE,[3],0%
same,NEUTROPHIL,[3],5.67%
same,NUCLEATED RED BLOOD CELLS,[3],0 /100WBC
same,PLATELET COUNT,[3],1000.33 x10E3/uL
same,ALANINE AMINOTRANSFERASE,[3],45.33 u/L
same,ALBUMIN,[3],4.4 G/DL
same,ALKALINE PHOSPHATASE,[3],316.33 u/L
same,ASPARTATE AMINOTRANSFERASE,[3],72.67 u/L
same,BLOOD UREA NITROGEN,[3],12 mg/dL
same,CARBON DIOXIDE,[3],33.33 mmol/L
same,CHLORIDE,[3],101.5 MEQ/L
same,CHOLESTEROL,[3],110.33 mg/dL
same,CREATINE PHOSPHOKINASE,[3],312.33 u/L
same,CREATININE,[3],0.1 mg/dL
same,GLUCOSE,[3],170.33 mg/dL
same,LACTATE DEHYDROGENASE,[3],86.33 u/L
same,LIPASE,[3],12.33 u/L
same,PHOSPHORUS,[3],10.73 mg/dL
same,POTASSIUM,[3],5.47 MEQ/L
same,SODIUM,[3],147.05 MEQ/L
same,TOTAL BILIRUBIN,[3],0.17 mg/dL
same,TOTAL PROTEIN,[3],6.3 G/DL
same,URIC ACID,[3],0.6 mg/dL
same,ABSOLUTE BASOPHIL,[4],0 CELLS/uL
same,ABSOLUTE EOSINOPHIL,[4],0 CELLS/uL
same,ABSOLUTE LYMPHOCYTE,[4],3639 CELLS/uL
same,ABSOLUTE MONOCYTE,[4],0 CELLS/uL
same,ABSOLUTE SEGMENTED NEUTROPHIL,[4],61 CELLS/uL
same,BASOPHIL,[4],0%
same,EOSINOPHIL,[4],0%
same,ERYTHROCYTE COUNT,[4],6.14 x10E6/uL
same,HEMATOCRIT,[4],38.4%
same,HEMOGLOBIN,[4],14.8 G/DL
same,LEUKOCYTE COUNT,[4],3.7 x10E3/uL
same,LYMPHOCYTE,[4],98.5%
same,MEAN CORPUSCULAR HEMOGLOBIN,[4],24.15 pg
same,MEAN CORPUSCULAR HEMOGLOBIN CONCENTRATION,[4],38.6 G/DL
same,MEAN CORPUSCULAR VOLUME,[4],62.55 fL
same,MONOCYTE,[4],0%
same,NEUTROPHIL,[4],1.5%
same,NUCLEATED RED BLOOD CELLS,[4],0 /100WBC
same,PLATELET COUNT,[4],1040 x10E3/uL
same,ALANINE AMINOTRANSFERASE,[4],36.5 u/L
same,ALBUMIN,[4],4.35 G/DL
same,ALKALINE PHOSPHATASE,[4],322.5 u/L
same,ASPARTATE AMINOTRANSFERASE,[4],72 u/L
same,BLOOD UREA NITROGEN,[4],7 mg/dL
same,CARBON DIOXIDE,[4],28 mmol/L
same,CHLORIDE,[4],100 MEQ/L
same,CHOLESTEROL,[4],78 mg/dL
same,CREATINE PHOSPHOKINASE,[4],216 u/L
same,CREATININE,[4],0.13 mg/dL
same,GLUCOSE,[4],154 mg/dL
same,LACTATE DEHYDROGENASE,[4],72 u/L
same,LIPASE,[4],10.5 u/L
same,PHOSPHORUS,[4],9.25 mg/dL
same,POTASSIUM,[4],5.75 MEQ/L
same,SODIUM,[4],145.2 MEQ/L
same,TOTAL BILIRUBIN,[4],0.1 mg/dL
same,TOTAL PROTEIN,[4],6.35 G/DL
same,URIC ACID,[4],0.5 mg/dL
